≈ marks a conversion by molar mass, not a printed value. Entries after “also recorded” stand apart in the source; their conditions may differ.
What was measured:
[1] = molecular target: M. tuberculosis PanK wild type (Mycobacterium tuberculosis, UniProt P9WPA7); assay: biochemical
M. tuberculosis H37Ra = assay: microbe, parasite or virus in culture; format: cell-based; conditions: Mycobacterium tuberculosis, read-out: Growth inhibition at harvest (OD600)
M. tuberculosis PyrG = tested on: M. tuberculosis PyrG; set-up: method as in PMID 26097035, PMID 28475832; conditions: previously identified PyrG inhibitors; cited from earlier work
M. tuberculosis = tested on: M. tuberculosis; set-up: method as in PMID 26097035, PMID 28475832; conditions: known antitubercular activity; cited from earlier work
M. tuberculosis H37Rv = assay: MIC against M. tuberculosis H37Rv (wild type); format: cell-based; conditions: Mycobacterium tuberculosis; strain H37Rv
M. tuberculosis PanK = M. tuberculosis PanK (Mycobacterium tuberculosis, UniProt P9WPA7); assay: PanK activity during incubation with prodrug and EthA; format: biochemical; conditions: 8 hours of incubation with EthA and NADPH, compound 0.3 mM
human cell lines = tested on: human cell lines; set-up: method as in PMID 26097035; conditions: cited from earlier work

M. tuberculosis PanK wild type, sequence (P9WPA7 whole entry): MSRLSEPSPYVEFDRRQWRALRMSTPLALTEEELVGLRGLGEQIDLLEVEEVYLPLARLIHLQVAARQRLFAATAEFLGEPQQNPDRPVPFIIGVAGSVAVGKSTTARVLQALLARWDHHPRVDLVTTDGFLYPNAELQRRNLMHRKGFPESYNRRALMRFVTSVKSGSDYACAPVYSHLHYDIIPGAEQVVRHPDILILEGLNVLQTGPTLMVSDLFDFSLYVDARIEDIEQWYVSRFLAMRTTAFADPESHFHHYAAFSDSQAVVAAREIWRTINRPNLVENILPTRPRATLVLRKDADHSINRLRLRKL
M. tuberculosis PanK, sequence (P9WPA7 whole entry): as above

SMILES	inhibition at 0.2 µg/mL (M. tuberculosis H37Ra) [%]	IC50 (M. tuberculosis PyrG) [µM]	MIC (M. tuberculosis) [µM]	IC50 [1] [µM]	MIC (M. tuberculosis H37Rv) [µg/mL]	further results
O=C(Cc1ccc(F)cc1)Nc1nc(-c2ccccn2)cs1 [GSK1570606A, 2-(4-fluorophenyl)-N-(4-(pyridin-2-yl)thiazol-2-yl)acetamide]	37	4.2	9.3 (≈ 2.91 µg/mL)	–	–	PanK IC50 [1]: n. i.
c1ccc(-c2csc(Nc3nc4cc5c(cc4s3)OCO5)n2)nc1 [GSK735826A, N-(4-(pyridin-2-yl)thiazol-2-yl)-(1,3)dioxolo(4′,5′:4,5)benzo(1,2-d)thiazol-6-amine]	66	22	2.7 (≈ 0.957 µg/mL)	70	–	Ki ([1]; competitive inhibitor towards the ATP binding site): 65.3 ± 4.33 µM
O=C(CCc1ccccc1)NC(=S)Nc1ccc(N2CCCCC2)cc1 [compound 7904688, 3-phenyl-N-[(4-piperidin-1-ylphenyl)carbamothioyl]propanamide]	–	–	–	–	0.5 (≈ 1.36 µM)	loss of PanK activity (M. tuberculosis PanK): more than 90%; toxicity against human cell lines (human cell lines): very low toxicity
CC1=CC=C(C(=O)Nc2ccc([N+](=O)[O-])cc2)S1(=O)=O [compound 11426026]	83	–	–	–	1 (≈ 3.4 µM)	–
CCc1cc(C(N)=S)ccn1 [Ethionamide, reference compound]	–	–	–	–	1 (≈ 6.02 µM)	–
COc1ccc(-c2nnc(SCC(=O)Nc3ccc([N+](=O)[O-])cc3)o2)cc1 [CDD-934506, 2-((5-(4-methoxyphenyl)-1,3,4-oxadiazol-2-yl)sulfanyl)-N-(4-nitrophenyl)acetamide]	–	–	0.87 (≈ 0.336 µg/mL)	40	–	PyrG IC50 (M. tuberculosis PyrG): inactive; also recorded: n. i
C[C@H]1COC2(CCN(c3nc(=O)c4cc(C(F)(F)F)cc([N+](=O)[O-])c4s3)CC2)O1 [BTZ043, reference compound]	23	–	–	–	–	–
O=C(COc1cccc(F)c1)Nc1nc(-c2ccccn2)cs1 [GSK920684A, 2-(3-fluorophenoxy)-N-(4-(pyridin-2-yl)thiazol-2-yl)acetamide]	26	22	–	–	–	PanK IC50 [1]: n. i.
O=C(CN1CCN(Cc2ccccc2)CC1)Nc1ccc([N+](=O)[O-])cc1C(=O)c1ccccc1 [CDD-823953, N-(2-benzoyl-4-nitrophenyl)-2-(4-benzylpiperazin-1-yl)acetamide]	–	80	4.39 (≈ 2.01 µg/mL)	250	–	–
Cc1ccc(C(=O)Nc2ccc([N+](=O)[O-])cc2)s1 [compound 7947882, 5-methyl-N-(4-nitrophenyl)thiophene-2-carboxamide]	–	–	–	–	0.5 (≈ 1.91 µM)	loss of PanK activity (M. tuberculosis PanK): more than 90%; toxicity against human cell lines (human cell lines): very low toxicity

From publication PMC5816626, “A multitarget approach to drug discovery inhibiting Mycobacterium tuberculosis PyrG and PanK” (Scientific Reports, 2018)
